In US20220009920A1 (GB005, Inc., priority 2020, published 2022) one finds inhibition data, which are given here for three molecules.

Common to all, as to test: Large panel kinase profiling
What all share (format): biochemical
What all share (details): 1 μM test article, 1 mM ATP

One test addresses ABL2 (Homo sapiens, UniProt P42684). An outline of the steps: (§1)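 Activity is measured in real time from the CSox sensor's fluorescence at 485 nm after 360 nm excitation, sampled every minute. Assays run at 30° C. with 1 mM ATP and a single 1 μM compound dose.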
The target in the next test is BMP2K/BIKE (Homo sapiens, UniProt Q9NSY1). The method in brief:
as §1

Another test has as its target T1, DDR2 (Homo sapiens, UniProt Q16832).
T1 construct: AssayQuant Technologies, Inc. (service laboratory)
T1 sequence (Q16832 22-855): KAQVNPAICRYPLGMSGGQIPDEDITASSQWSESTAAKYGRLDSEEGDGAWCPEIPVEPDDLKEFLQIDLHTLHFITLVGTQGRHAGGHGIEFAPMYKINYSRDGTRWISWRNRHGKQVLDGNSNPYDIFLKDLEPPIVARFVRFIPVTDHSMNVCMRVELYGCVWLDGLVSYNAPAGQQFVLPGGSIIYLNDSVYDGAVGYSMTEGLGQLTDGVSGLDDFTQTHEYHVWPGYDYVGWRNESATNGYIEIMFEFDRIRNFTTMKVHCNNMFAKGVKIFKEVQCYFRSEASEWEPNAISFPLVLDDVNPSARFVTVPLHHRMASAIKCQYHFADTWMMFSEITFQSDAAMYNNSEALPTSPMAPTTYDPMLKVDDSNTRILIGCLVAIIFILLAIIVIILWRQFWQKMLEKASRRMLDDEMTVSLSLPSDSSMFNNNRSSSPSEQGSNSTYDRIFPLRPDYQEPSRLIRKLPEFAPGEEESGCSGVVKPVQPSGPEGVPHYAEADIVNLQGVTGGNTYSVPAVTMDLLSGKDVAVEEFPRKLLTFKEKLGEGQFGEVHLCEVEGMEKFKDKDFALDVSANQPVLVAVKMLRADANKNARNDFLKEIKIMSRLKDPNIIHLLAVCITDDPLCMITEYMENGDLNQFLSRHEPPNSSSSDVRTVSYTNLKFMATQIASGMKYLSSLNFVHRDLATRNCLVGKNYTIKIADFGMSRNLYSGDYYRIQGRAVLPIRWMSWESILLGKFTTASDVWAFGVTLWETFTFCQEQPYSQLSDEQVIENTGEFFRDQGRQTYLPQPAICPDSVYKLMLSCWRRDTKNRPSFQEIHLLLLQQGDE
An outline of the steps: as §1

Another test has as its target T2, GAK (Homo sapiens, UniProt O14976).
T2 construct: AssayQuant Technologies, Inc. (service provider)
T2 sequence (O14976 1-1311): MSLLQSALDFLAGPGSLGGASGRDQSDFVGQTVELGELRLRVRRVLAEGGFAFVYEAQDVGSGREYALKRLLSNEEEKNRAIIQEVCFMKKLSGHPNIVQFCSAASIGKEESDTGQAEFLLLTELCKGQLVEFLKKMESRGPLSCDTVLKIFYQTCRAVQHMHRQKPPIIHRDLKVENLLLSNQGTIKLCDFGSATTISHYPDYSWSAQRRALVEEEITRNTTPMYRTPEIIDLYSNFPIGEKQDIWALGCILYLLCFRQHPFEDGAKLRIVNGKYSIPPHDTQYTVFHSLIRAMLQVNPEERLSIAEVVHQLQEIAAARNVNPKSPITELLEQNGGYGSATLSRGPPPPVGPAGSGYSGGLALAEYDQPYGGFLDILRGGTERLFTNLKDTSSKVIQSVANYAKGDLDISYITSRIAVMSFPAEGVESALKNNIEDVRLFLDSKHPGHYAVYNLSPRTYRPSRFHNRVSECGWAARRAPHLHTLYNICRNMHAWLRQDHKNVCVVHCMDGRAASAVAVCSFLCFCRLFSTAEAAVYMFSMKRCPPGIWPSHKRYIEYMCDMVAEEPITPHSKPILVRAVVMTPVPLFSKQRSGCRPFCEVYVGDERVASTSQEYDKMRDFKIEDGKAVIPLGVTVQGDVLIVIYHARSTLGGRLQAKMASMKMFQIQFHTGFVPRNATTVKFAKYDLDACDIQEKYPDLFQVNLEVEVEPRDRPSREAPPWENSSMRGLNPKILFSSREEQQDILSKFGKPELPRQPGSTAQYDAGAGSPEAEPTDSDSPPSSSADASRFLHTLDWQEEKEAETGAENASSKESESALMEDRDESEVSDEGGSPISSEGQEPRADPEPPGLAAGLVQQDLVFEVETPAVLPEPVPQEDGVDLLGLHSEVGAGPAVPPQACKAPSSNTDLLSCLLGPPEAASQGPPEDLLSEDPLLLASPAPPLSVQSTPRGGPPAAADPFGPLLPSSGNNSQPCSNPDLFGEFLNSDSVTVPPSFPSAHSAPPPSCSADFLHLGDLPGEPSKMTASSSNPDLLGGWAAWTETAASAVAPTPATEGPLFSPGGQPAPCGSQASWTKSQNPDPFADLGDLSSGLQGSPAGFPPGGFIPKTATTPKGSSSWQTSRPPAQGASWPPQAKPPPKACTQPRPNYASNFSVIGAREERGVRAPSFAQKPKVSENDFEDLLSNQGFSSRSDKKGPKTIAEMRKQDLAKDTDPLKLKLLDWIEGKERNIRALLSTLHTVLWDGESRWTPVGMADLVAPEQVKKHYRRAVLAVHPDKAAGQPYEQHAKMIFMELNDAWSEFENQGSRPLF
An outline of the steps:
as §1

A further test has as its target T3, JAK1(JH1JH2) (Homo sapiens, UniProt P23458).
T3 construct: JAK1(JH1JH2)
An outline of the steps: as §1

The target in a further test is PAK2 (Homo sapiens, UniProt Q13177). An outline of the steps:
as §1

Another test has as its target PIM1 (Homo sapiens, UniProt P11309). The method in brief: as §1
The next test concerns the target T4, SLK (Homo sapiens, UniProt Q9H2G2).
T4 construct: AssayQuant Technologies, Inc. (contract assay)
The method in brief: as §1

Chain of PIM1 (P11309 whole entry, species assumed): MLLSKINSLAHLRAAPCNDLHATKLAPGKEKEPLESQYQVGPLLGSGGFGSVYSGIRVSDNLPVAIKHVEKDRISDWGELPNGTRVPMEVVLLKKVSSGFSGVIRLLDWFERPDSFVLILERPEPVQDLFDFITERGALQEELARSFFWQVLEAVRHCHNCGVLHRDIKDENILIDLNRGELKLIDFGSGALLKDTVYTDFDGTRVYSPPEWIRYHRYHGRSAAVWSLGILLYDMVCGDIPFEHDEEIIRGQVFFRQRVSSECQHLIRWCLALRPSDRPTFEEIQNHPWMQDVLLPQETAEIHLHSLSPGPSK
Chain of ABL2 (P42684 whole entry): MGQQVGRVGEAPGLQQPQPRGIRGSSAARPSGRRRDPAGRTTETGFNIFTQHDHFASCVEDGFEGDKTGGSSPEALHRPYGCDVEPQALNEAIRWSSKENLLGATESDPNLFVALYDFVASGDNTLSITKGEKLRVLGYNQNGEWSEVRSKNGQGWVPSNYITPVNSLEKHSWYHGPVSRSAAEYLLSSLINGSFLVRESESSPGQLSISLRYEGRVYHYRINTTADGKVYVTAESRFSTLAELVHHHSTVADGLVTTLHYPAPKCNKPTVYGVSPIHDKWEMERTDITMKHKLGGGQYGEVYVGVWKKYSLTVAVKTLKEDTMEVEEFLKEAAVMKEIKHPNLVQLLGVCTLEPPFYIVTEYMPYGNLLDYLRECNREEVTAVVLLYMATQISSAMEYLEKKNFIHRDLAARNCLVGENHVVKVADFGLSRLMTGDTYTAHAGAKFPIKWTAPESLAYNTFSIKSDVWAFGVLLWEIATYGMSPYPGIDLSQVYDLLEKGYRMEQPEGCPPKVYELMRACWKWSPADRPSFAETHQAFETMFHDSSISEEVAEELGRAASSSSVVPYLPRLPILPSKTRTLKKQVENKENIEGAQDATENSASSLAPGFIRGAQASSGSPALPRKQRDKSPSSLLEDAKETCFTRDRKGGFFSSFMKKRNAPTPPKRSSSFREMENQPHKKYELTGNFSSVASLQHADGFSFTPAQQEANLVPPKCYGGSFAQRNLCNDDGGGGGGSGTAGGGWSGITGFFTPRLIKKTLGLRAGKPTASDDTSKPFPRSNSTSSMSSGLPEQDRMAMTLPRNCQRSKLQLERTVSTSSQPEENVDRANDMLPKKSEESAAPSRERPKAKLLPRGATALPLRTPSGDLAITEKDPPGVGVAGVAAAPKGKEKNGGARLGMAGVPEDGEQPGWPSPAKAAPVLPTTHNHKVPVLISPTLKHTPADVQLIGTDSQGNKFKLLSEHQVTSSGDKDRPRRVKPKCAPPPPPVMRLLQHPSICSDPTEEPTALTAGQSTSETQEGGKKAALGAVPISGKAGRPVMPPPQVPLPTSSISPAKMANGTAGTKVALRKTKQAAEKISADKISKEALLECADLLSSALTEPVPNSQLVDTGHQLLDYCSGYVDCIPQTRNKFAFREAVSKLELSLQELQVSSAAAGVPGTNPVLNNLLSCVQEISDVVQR
T4 sequence (Q9H2G2 whole entry): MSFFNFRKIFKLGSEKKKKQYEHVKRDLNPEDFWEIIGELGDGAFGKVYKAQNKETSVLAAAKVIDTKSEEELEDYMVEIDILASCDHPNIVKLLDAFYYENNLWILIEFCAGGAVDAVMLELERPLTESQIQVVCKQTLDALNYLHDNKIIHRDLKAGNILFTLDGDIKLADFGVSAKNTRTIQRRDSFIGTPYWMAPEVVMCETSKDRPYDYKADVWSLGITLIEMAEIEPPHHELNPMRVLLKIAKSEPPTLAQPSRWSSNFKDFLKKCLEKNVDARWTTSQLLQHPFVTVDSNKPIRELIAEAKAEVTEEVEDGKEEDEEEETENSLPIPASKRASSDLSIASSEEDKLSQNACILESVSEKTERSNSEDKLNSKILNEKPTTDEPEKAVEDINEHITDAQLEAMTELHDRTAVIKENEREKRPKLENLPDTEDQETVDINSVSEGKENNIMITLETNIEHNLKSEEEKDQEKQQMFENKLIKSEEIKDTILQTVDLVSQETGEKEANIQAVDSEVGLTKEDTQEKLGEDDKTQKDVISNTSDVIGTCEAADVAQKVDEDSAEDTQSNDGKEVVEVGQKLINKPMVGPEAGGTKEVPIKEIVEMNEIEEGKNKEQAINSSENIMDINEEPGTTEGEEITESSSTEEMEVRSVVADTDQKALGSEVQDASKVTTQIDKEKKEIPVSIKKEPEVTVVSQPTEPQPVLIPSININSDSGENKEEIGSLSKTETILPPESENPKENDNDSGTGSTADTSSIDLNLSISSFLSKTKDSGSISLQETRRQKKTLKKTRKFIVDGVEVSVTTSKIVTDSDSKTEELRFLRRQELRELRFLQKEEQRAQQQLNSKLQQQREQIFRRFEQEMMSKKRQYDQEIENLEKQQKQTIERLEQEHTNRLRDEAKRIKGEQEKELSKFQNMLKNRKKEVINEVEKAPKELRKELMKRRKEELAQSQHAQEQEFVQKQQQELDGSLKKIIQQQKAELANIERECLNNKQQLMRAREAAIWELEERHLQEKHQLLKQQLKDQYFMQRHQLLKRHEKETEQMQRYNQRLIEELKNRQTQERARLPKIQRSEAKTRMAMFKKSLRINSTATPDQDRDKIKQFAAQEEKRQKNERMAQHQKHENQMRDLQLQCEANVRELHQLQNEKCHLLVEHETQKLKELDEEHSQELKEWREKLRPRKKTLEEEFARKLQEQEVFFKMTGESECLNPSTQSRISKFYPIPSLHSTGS
Chain of PAK2 (Q13177 whole entry, species assumed): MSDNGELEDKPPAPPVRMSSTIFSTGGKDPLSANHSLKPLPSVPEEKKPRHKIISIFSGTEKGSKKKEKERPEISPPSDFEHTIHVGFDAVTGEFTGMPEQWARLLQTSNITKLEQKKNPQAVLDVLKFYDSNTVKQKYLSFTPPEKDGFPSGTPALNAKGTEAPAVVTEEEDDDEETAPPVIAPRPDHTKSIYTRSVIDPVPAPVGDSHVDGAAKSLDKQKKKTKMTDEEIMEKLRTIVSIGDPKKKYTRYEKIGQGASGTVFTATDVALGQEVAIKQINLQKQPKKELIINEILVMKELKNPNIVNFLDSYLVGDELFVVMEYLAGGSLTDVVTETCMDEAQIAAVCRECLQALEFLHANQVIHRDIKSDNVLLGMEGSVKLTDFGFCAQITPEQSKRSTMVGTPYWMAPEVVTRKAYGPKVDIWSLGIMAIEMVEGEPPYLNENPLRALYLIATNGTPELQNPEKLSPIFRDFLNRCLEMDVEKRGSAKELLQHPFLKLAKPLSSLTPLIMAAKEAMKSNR
Chain of BMP2K/BIKE (Q9NSY1 whole entry): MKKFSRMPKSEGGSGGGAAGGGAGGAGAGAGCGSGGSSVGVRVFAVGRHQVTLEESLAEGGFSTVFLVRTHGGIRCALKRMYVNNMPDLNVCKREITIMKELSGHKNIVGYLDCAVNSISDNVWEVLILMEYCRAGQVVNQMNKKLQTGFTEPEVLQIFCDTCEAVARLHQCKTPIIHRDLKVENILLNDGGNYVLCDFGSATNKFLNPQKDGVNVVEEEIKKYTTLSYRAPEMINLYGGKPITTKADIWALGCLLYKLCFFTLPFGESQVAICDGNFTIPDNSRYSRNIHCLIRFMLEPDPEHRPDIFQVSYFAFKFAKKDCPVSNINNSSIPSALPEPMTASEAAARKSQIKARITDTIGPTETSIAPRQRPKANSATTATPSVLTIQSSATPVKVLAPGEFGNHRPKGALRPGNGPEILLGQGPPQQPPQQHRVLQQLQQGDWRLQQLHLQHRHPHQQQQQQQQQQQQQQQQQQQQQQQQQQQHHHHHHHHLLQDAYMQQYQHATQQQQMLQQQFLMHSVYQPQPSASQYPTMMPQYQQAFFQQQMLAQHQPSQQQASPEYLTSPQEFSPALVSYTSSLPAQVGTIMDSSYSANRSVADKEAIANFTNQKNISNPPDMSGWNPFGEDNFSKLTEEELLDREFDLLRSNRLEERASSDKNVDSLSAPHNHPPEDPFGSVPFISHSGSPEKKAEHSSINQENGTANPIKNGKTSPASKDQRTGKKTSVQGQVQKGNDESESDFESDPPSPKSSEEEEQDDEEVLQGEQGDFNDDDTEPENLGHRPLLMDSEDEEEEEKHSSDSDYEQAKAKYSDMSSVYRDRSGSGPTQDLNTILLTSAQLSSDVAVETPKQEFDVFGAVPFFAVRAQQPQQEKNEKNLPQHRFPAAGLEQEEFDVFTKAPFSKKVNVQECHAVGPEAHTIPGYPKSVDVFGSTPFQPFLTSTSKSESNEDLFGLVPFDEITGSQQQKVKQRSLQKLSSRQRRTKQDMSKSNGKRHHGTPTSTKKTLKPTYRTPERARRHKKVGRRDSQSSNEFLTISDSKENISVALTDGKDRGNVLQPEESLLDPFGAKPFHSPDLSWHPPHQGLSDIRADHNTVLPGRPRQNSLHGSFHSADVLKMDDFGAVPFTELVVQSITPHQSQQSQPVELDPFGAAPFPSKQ
T3 sequence (P23458 561-1154 limits assumed, species assumed): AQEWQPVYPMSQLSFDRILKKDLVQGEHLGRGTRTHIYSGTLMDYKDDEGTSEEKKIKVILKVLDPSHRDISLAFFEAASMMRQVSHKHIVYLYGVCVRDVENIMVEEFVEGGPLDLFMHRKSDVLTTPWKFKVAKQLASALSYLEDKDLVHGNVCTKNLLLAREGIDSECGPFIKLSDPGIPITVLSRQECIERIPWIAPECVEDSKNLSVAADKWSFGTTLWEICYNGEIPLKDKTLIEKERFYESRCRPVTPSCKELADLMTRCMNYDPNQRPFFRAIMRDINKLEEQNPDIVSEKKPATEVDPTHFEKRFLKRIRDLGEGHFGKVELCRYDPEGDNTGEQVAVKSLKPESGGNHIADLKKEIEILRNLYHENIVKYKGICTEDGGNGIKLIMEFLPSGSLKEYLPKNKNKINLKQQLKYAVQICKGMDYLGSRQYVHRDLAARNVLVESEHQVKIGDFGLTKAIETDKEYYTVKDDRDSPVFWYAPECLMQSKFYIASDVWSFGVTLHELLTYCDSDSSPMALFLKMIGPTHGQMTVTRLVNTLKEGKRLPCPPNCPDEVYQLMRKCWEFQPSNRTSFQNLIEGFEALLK

Regarding `C=CC(=O)N1CCCC(c2c(F)cc(C(N)=O)c3[nH]c4c(c23)CCCCC4)C1` (single isomer, unassigned) [Compound 5-6], the inhibition at 1 µM was -29.7% on ABL2; -18.6% at BMP2K/BIKE; -6.5% against DDR2; 17.9% at GAK; 8.5% against JAK1(JH1JH2); 13.9% against PAK2. For the same molecule, the figures for the inhibition at 1 µM at PIM1 and at SLK were 7% and -3.7%, respectively.
For the molecule `C=CC(=O)N1CCC[C@@H](c2c(F)cc(C(N)=O)c3[nH]c4c(c23)CC2(CC4)CC2)C1` [Compound 6-2, (S)-5-(1-acryloylpiperidin-3-yl)-6-fluoro-1,2,4,9-tetrahydrospiro[carbazole-3,1′-cyclopropane]-8-carboxamide], the inhibition at 1 µM against ABL2 is -1.3%; against BMP2K/BIKE it was -12.3%; on DDR2 it was -15.9%; on GAK it was -3.7%; on JAK1(JH1JH2), 29.4%; against PAK2 it was 1.3%. For the same molecule, the values for the inhibition at 1 µM against PIM1 and on SLK were -43% and 8.9%, respectively.
With `C=CC(=O)N1CCC[C@@H](c2c(F)cc(C(N)=O)c3[nH]c4c(c23)CCC4)C1` [Compound 10-2, (S)-8-(1-acryloylpiperidin-3-yl)-7-fluoro-1,2,3,4-tetrahydrocyclo-penta[b]indole-5-carboxamide], the inhibition at 1 µM at ABL2 was 1.9%; against BMP2K/BIKE, -6.6%; at DDR2, -26.7%; against GAK it was -28.4%; on JAK1(JH1JH2) it was 14.8%; against PAK2 it was 7%. Also, the inhibition at 1 µM is -7.1% against PIM1 and -48.3% at SLK.
